For data set [1], the system named is AHR-regulated gene CYP1A1. The data set can be described thus: In vitro assay 3: AHR-regulated CYP1A1 expression in human cell line (U937, qPCR). Background: Real-time PCR tracks product formation cycle by cycle.
Data set [2] has as its target T1, AHR (Homo sapiens, UniProt P35869).
T1 sequence (P35869 11-848): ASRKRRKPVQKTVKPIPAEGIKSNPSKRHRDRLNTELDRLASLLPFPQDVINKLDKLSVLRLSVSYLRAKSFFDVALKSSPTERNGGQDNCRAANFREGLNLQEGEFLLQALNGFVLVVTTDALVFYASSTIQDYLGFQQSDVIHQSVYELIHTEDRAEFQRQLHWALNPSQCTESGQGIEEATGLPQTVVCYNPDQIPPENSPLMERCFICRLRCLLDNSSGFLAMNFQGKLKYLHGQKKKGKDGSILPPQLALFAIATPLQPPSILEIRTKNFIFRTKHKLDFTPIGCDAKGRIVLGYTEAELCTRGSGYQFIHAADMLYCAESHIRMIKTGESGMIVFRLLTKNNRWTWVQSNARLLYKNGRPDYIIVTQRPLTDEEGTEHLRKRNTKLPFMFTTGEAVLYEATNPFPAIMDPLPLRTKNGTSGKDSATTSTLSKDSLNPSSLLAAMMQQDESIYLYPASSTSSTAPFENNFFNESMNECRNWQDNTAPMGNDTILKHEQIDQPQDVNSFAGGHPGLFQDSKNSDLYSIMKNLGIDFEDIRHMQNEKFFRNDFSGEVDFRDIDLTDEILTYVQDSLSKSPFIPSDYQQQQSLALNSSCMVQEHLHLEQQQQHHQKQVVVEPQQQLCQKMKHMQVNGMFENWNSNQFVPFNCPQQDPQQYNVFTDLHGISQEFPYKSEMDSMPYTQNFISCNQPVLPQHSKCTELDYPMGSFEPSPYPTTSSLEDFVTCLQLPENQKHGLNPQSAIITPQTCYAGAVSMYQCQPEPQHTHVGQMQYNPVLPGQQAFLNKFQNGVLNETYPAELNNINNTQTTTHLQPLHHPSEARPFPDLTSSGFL
Put plainly: In vitro assay 2: agonism in human cell line (transactivation assay).

Data set [3] concerns the target T1, AHR. The data set can be described thus: In vitro assay 1: antagonism in human cell line (transactivation assay, kynurenic acid prestimulated). The conditions noted are these: Assay 1: AHR-luc Hum Antagonism IC50 [M], 150 μM kynurenic acid, 20 hours, firefly luciferase.
Setting [4] is: Homo sapiens, U-937, 6 h, read-out: Assay 3: Hum CYP1A1 Antagonism IC50 [M], U937 cells, 200 μM KA, 6 hours, qPCR.
[5] abbreviates: Assay 2: AHR-luc Hum Agonism IC50 [M], no kynurenic acid, 20 hours, firefly luciferase.
The mark [6] stands for this setting: read-out: Assay 2: AHR-luc Hum Agonism IC50, no kynurenic acid, 20 hours, firefly luciferase.
The mark [7] stands for this setting: read-out: Assay 3: Hum CYP1A1 Antagonism IC50, U937 cells, 200 μM KA, 6 hours, qPCR.

From patent US11040035B2, “3-oxo-2,6-diphenyl-2,3-dihydropyridazine-4-carboxamides” (BAYER PHARMA AKTIENGESELLSCHAFT, priority 2016, dated 2021) come the findings set out here.

Read-outs that look alike come from different tables or passages of the source.

The IC50 is the concentration needed to halve the response being measured. As to `O=C(NC(CO)C(F)(F)F)c1cc(-c2ccc(OC(F)(F)F)cc2)nn(-c2cccc(F)c2)c1=O` (stereo not drawn) [Example 169, 2-(3-Fluorophenyl)-3-oxo-N-(1,1,1-trifluoro-3-hydroxypropan-2-yl)-6-[4-(trifluoromethoxy)phenyl]-2,3-dihydropyridazine-4-carboxamide], the IC50 in data set [1] (setting [4]) was 1.35e-08 M; on AHR [2] (setting [5]), above 2e-05 M; against AHR [3] it was 1.11e-08 M.

Regarding `CC(C)(C)[C@@H](CO)NC(=O)c1cc(-c2ccc(Cl)cc2)nn(-c2cccc(F)c2)c1=O` [Example 272, 6-(4-Chlorophenyl)-2-(3-fluorophenyl)-N-[(2S)-1-hydroxy-3,3-dimethylbutan-2-yl]-3-oxo-2,3-dihydropyridazine-4-carboxamide], the IC50 was 2.37e-08 M in data set [1] (setting [4]), above 2e-05 M against AHR [2] (setting [5]) and 3.6e-08 M at AHR [3].

With `CC(C)C(O)CNC(=O)c1cc(-c2ccc(Cl)cc2)nn(-c2cccc(F)c2)c1=O` (single isomer, unassigned) [Example 29, 6-(4-Chlorophenyl)-2-(3-fluorophenyl)-N-(2-hydroxy-3-methylbutyl]-3-oxo-2,3-dihydropyridazine-4-carboxamide], the IC50 in data set [1] (setting [4]) was 1.55e-07 M; against AHR [2] (setting [5]), above 2e-05 M; at AHR [3], 9.15e-08 M.

For the compound `COC[C@@H](CO)NC(=O)c1cc(-c2ccc(C(F)(F)F)cc2)nn(-c2cccc(F)c2)c1=O` [Example 258, (−)-2-(3-Fluorophenyl)-N-[(2R)-1-hydroxy-3-methoxypropan-2-yl]-3-oxo-6-[4-(trifluoromethyl)phenyl]-2,3-dihydropyridazine-4-carboxamide], the half-maximal inhibitory concentration (IC50) in data set [1] (setting [4]) is 3.71e-08 M; against AHR [2] (setting [5]), above 2e-05 M; on AHR [3], 3.01e-08 M.

As to `N#CC(CO)NC(=O)c1cc(-c2ccc(Cl)cc2)nn(-c2cccc(F)c2)c1=O` (racemic) [Example 371, 6-(4-chlorophenyl)-N-[(1RS)-1-cyano-2-hydroxyethyl]-2-(3-fluorophenyl)-3-oxo-2,3-dihydropyridazine-4-carboxamide], the 50% inhibitory concentration (IC50) in data set [1] (setting [4]) was 5.69e-08 M; against AHR [2] (setting [5]) it was above 2e-05 M; against AHR [3], 1.63e-08 M.

Consider `O=C(N[C@H]1CC[C@@H]1O)c1cc(-c2ccc(Cl)cc2)nn(-c2cccc(F)c2)c1=O` (single isomer, unassigned) [Example 336, (+)-6-(4-chlorophenyl)-2-(3-fluorophenyl)-N-(trans-2-hydroxycyclobutyl)-3-oxo-2,3-dihydropyridazine-4-carboxamide], for which the IC50 in data set [1] (setting [4]) was 2e-06 M; on AHR [2] (setting [6]), above 2e-05 M; at AHR [3] it was 4.02e-08 M.

In the case of `O=C(NCC1(O)CCC1)c1cc(-c2ccc(Cl)cc2)nn(-c2cccc(F)c2)c1=O` [Example 212, 6-(4-Chlorophenyl)-2-(3-fluorophenyl)-N-[(1-hydroxycyclobutyl)methyl]-3-oxo-2,3-dihydropyridazine-4-carboxamide], the IC50 in data set [1] (setting [4]) was 4.92e-08 M; against AHR [2] (setting [5]), above 2e-05 M; on AHR [3], 3.59e-08 M.

With `CC(C)C(O)CNC(=O)c1cc(-c2ccc(Cl)cc2)nn(-c2cccc(F)c2)c1=O` (single isomer, unassigned) [Example 30, 6-(4-Chlorophenyl)-2-(3-fluorophenyl)-N-(2-hydroxy-3-methylbutyl]-3-oxo-2,3-dihydropyridazine-4-carboxamide], the IC50 in data set [1] (setting [7]) is 1.77e-07 M; at AHR [2] (setting [6]), above 2e-05 M; against AHR [3], 1.33e-07 M.

Regarding `CC(CCO)NC(=O)c1cc(-c2ccc(C(F)(F)F)cc2)nn(-c2cccc(F)c2)c1=O` (single isomer, unassigned; (-)) [Example 255, (−)-2-(3-Fluorophenyl)-N-(4-hydroxybutan-2-yl)-3-oxo-6-[4-(trifluoromethyl)phenyl]-2,3-dihydropyridazine-4-carboxamide], the IC50 in data set [1] (setting [7]) is 3.89e-07 M; at AHR [2] (setting [6]) it was above 2e-05 M; on AHR [3], 1.09e-07 M.

Turning to `CC(C)(O)CNC(=O)c1cc(-c2ccc(C(F)(F)F)cc2)nn(-c2cccc(F)c2)c1=O` [Example 256, 2-(3-Fluorophenyl)-N-(2-hydroxy-2-methylpropyl)-3-oxo-6-[4-(trifluoromethyl)phenyl]-2,3-dihydropyridazine-4-carboxamide], the IC50 is 2.83e-08 M in data set [1] (setting [4]), above 2e-05 M against AHR [2] (setting [5]) and 1.44e-08 M against AHR [3].

`CC(C)[C@@H](CO)NC(=O)c1cc(-c2ccc(OC(F)(F)F)cc2)nn(-c2cccc(F)c2)c1=O` [Example 168, 2-(3-Fluorophenyl)-N-[(2S)-1-hydroxy-3-methylbutan-2-yl]-3-oxo-6-[4-(trifluoromethoxy)phenyl]-2,3-dihydropyridazine-4-carboxamide]: the IC50 was 2.16e-08 M in data set [1] (setting [4]), above 2e-05 M at AHR [2] (setting [5]) and 6.92e-09 M against AHR [3].

Consider `O=C(NCC(O)C(F)(F)F)c1cc(-c2ccc(OC(F)(F)F)cc2)nn(-c2cccc(F)c2)c1=O` (stereo not drawn) [Example 182, 2-(3-Fluorophenyl)-3-oxo-N-(3,3,3-trifluoro-2-hydroxypropyl)-6-[4-(trifluoromethoxy)phenyl]-2,3-dihydropyridazine-4-carboxamide], for which the figures for the IC50 (in data set [1] (setting [4]); against AHR [2] (setting [5]); against AHR [3]) were 5.9e-08 M, above 2e-05 M and 3.41e-08 M, respectively.

With `CC(C)C(O)CNC(=O)c1cc(-c2ccc(Cl)cc2)nn(-c2cc(F)cc(F)c2)c1=O` (single isomer, unassigned) [Example 50, 6-(4-Chlorophenyl)-2-(3,5-difluorophenyl)-N-(2-hydroxy-3-methylbutyl)-3-oxo-2,3-dihydropyridazine-4-carboxamide], the IC50 in data set [1] (setting [7]) is 1.51e-07 M; at AHR [2] (setting [6]) it was above 2e-05 M; at AHR [3], 5.8e-08 M.

On to `C[C@H](O)CCNC(=O)c1cc(-c2ccc(C(F)(F)F)cc2)nn(-c2cccc(F)c2)c1=O` [Example 248, 2-(3-Fluorophenyl)-N-[(3S)-3-hydroxybutyl]-3-oxo-6-[4-(trifluoromethyl)phenyl]-2,3-dihydropyridazine-4-carboxamide], for which the values for the IC50 (in data set [1] (setting [4]); against AHR [2] (setting [5]); against AHR [3]) were 1.36e-07 M, above 2e-05 M and 9.73e-08 M, respectively.

Take `COC[C@H](CO)NC(=O)c1cc(-c2ccc(Cl)cc2)nn(-c2cccc(F)c2)c1=O` [Example 229, 6-(4-Chlorophenyl)-2-(3-fluorophenyl)-N-[(2S)-1-hydroxy-3-methoxypropan-2-yl]-3-oxo-2,3-dihydropyridazine-4-carboxamide]: the IC50 in data set [1] (setting [4]) was 2e-06 M; on AHR [2] (setting [5]) it was above 2e-05 M; at AHR [3] it was 1.5e-07 M.

As to `Cc1ccc(-c2cc(C(=O)NCC(O)C(C)C)c(=O)n(-c3cc(F)cc(F)c3)n2)cc1` (single isomer, unassigned) [Example 58, 2-(3,5-Difluorophenyl)-N-(2-hydroxy-3-methylbutyl)-6-(4-methylphenyl)-3-oxo-2,3-dihydropyridazine-4-carboxamide], the IC50 was 1.34e-07 M in data set [1] (setting [7]), above 2e-05 M at AHR [2] (setting [6]) and 4.28e-08 M against AHR [3].

Turning to `COC(=O)[C@@H](CO)NC(=O)c1cc(-c2ccc(Cl)cc2)nn(-c2cccc(F)c2)c1=O` [Example 315, methyl N-{[6-(4-chlorophenyl)-2-(3-fluorophenyl)-3-oxo-2,3-dihydropyridazin-4-yl]carbonyl}-D-serinate], the figures for the IC50 (in data set [1] (setting [4]); against AHR [2] (setting [5]); against AHR [3]) were 2e-06 M, above 2e-05 M and 8.53e-08 M, respectively.
